Assay results from patent publication US6838479B2, “Amidine inhibitors of serine proteases” (Genentech, Inc., priority 2000, dated 2005).
“And” between values parts separate entries of the source, which are not always exact repeats. Equal entries are not always repeated.

How the values were obtained:
Type in all cases: biochemical
[1] = target: tissue factor/factor VIIa (Homo sapiens, UniProt P08709); test: Tissue Factor/Factor VIIa antagonist assay (chromogenic, Ki); settings: 10 nM VIIa, 30 nM TF, Chromozym-tPA 1.33 mM; read-out: binding affinity to serine proteases: VIIa
Sequence of tissue factor/factor VIIa (P08709 213-466 limits assumed): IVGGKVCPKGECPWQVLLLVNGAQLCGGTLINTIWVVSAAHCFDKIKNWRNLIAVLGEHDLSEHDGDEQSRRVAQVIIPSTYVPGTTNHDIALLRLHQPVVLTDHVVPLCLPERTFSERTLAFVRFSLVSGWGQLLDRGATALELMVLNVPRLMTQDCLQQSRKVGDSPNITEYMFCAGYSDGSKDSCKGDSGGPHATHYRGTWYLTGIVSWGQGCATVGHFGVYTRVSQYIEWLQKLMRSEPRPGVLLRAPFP
Sequence of tissue factor/factor VIIa (P08709 61-212 limits assumed): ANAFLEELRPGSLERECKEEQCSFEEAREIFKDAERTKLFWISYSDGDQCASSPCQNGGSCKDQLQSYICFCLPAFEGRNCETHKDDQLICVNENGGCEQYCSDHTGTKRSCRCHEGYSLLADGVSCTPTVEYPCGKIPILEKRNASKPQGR
Sequence of tissue factor/factor VIIa (P13726 33-251 partner limits assumed): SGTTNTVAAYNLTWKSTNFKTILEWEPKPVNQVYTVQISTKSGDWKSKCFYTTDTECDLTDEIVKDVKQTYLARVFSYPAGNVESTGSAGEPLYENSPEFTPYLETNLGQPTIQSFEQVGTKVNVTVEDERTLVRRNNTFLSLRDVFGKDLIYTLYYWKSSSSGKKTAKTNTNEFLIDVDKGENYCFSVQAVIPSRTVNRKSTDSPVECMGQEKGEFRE
Experimental: Tissue Factor/Factor VIIa Antagonist Assay
This procedure is used to determine the constant of inhibition (Ki) for a sample compound of the invention.
Procedure • 1. Prepare a solution of 2 μg/mL (90 nM) tissue factor and 1.5 μg/mL (30 nM) factor VIIa in assay buffer with CaCl2. • 2. Incubate for 15 minutes at room temperature. • 3. Add 50 μL sample to each well. • 4. Add 50 μL tissue factor/factor VIIa solution to each well. • 5. Incubate for 15 minutes at room temperature with gentle agitation. • 6. Add 50 μL substrate to each well. • 7. Agitate plate for 20-25 sec. • 8. Monitor absorbance at 405 nm every 10 see for a total of 5 minutes at room temperature. • 9. Calculate Vmax over 10 points.

trypsin = target: T1, trypsin (Bos taurus, UniProt P00760); test: Trypsin binding affinity; settings: read-out: binding affinity to serine proteases: trypsin
T1 sequence (P00760 24-246): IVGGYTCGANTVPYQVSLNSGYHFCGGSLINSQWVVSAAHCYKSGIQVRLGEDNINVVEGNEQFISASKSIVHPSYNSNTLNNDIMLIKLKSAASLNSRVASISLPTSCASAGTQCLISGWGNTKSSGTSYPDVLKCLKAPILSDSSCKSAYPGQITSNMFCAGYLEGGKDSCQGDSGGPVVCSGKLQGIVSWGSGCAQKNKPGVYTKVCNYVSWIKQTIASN

plasmin = plasmin (Homo sapiens, UniProt P00747); test: Plasmin binding affinity; settings: read-out: binding affinity to serine proteases: plasmin
Sequence of plasmin (P00747 581-810 limits assumed, species assumed): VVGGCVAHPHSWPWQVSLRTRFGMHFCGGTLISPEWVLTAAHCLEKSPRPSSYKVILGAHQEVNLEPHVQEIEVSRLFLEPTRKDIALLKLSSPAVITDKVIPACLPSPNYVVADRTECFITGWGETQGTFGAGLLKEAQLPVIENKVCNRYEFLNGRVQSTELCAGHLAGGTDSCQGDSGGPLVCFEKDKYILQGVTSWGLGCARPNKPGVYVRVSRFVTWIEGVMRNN
Sequence of plasmin (P00747 97-580 partner limits assumed, species assumed): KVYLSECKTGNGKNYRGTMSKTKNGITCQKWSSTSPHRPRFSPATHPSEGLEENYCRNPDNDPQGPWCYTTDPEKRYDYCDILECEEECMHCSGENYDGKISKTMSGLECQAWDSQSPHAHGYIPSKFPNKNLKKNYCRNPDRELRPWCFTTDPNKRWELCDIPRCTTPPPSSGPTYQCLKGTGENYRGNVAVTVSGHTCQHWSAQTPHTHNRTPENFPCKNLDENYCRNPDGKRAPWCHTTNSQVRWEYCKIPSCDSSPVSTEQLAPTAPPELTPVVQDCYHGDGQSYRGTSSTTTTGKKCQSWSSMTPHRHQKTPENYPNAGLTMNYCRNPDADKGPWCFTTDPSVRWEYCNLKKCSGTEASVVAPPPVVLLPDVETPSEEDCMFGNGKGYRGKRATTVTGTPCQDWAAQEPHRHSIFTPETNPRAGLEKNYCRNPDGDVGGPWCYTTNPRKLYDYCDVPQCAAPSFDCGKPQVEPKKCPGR

human Thrombin = target: T2, human Thrombin (Homo sapiens, UniProt P00734); test: Thrombin assay (chromogenic, Ki); settings: 8.2 nM thrombin, S-2266 0.3 mM; read-out: binding affinity to serine proteases: thrombin
T2 construct: rapidly converts prothrombin to thrombin
Experimental: (§1) Factor Xa, Thrombin, and Plasma Kallikrein Assays
(§2) These procedures are used to determine the constant of inhibition (Ki) for a sample compound of the invention.
(§3) Procedure • 1. Add 50 μL sample to each well. • 2. Add 50 μL appropriately diluted coagulation factor to each well. • 3. Incubate for 5 minutes at room temperature with gentle agitation. • 4. Add 50 μL appropriately diluted substrate to each well. • 5. Agitate plate for 20-25 sec. • 6. Monitor absorbance at 405 nm every 10 sec for a total of 5 minutes at room temperature. • 7. Calculate Vmax over 10 points.

human Factor Xa = target: T3, human Factor Xa (Homo sapiens, UniProt P00742); test: Factor Xa assay (chromogenic, Ki); settings: 3.3 nM Xa, S-2222 0.5 mM; read-out: binding affinity to serine proteases: Xa
T3 construct: This complex converts factor X to Xa
T3 sequence (P00742 235-488 limits assumed): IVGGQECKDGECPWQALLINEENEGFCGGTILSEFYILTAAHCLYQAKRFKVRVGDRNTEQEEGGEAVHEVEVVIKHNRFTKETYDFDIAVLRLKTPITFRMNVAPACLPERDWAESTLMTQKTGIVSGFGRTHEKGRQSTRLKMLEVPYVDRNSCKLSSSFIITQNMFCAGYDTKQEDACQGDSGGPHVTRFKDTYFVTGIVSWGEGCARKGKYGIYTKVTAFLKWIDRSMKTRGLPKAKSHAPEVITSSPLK
T3 sequence (P00742 41-179 limits assumed): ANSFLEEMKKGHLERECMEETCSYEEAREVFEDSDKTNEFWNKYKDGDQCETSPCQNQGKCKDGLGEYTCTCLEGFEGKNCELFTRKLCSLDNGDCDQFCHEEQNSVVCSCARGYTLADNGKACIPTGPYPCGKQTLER
Experimental: as §1, §2, §3

human Plasma Kallikrein = human Plasma Kallikrein (Homo sapiens, UniProt P03952); test: Plasma Kallikrein assay (chromogenic, Ki); settings: 1.5 nM plasma kallikrein, S-2302 0.3 mM; read-out: binding affinity to serine proteases: kallikrein
Sequence of human Plasma Kallikrein (P03952 391-638 limits assumed): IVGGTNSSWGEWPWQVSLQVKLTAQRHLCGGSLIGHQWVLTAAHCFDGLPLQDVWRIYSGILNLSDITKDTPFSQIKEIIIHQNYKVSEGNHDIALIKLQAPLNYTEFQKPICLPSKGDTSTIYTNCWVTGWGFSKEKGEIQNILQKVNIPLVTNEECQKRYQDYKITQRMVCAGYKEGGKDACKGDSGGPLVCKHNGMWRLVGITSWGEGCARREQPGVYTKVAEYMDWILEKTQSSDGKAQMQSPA
Sequence of human Plasma Kallikrein (P03952 20-390 partner limits assumed): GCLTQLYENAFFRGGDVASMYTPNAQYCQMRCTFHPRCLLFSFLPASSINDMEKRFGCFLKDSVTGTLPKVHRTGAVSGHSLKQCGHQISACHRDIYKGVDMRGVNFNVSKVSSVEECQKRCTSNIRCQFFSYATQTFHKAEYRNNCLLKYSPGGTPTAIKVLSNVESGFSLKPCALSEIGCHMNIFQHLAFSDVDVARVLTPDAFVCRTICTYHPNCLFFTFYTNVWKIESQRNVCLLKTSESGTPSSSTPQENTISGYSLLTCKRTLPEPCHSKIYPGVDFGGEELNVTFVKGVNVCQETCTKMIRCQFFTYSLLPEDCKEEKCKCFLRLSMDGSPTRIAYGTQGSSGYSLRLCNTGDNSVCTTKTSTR
Experimental: as §1, §2, §3

Q: Which Ki [1] does the source give for `N=C(N)c1cccc(O[C@H]2CN[C@H](C(=O)Nc3ccccc3)C2)c1` [compound 79] here?
A: 19 µM

Q: What about the Ki (trypsin) of the same molecule?
A: 20 µM

Q: And the Ki (plasmin)?
A: 24 µM

Q: What about the Ki (human Thrombin) of the same molecule?
A: > 36 µM

Q: What about the Ki (human Factor Xa) of the same molecule?
A: > 35 µM

Q: For `N=C(N)c1ccc(NC(=O)[C@@H]2C[C@@H](Oc3cccc(C(=N)N)c3)CN2Cc2ccccc2[N+](=O)[O-])cc1` [compound 7], which Ki (human Plasma Kallikrein) is on record?
A: 20 µM

Q: And the Ki [1]?
A: > 39 µM

Q: And the Ki (trypsin)?
A: 2.22 µM

Q: What about the Ki (plasmin) of the same molecule?
A: 7 µM

Q: And the Ki (human Thrombin)?
A: 25 µM

Q: And the Ki (human Factor Xa)?
A: 2.49 µM

Q: `CCCN1C[C@H](Oc2cccc(C(=N)N)c2)C[C@H]1C(=O)Nc1ccc(C(=N)N)cc1` [compound 1] was tested. Which Ki (human Plasma Kallikrein) did it give?
A: 6.56 µM

Q: What about the Ki [1] of the same molecule?
A: 7.8 µM

Q: And the Ki (trypsin)?
A: 0.866 µM

Q: What about the Ki (plasmin) of the same molecule?
A: 7.36 µM

Q: What about the Ki (human Thrombin) of the same molecule?
A: 4.74 µM

Q: And the Ki (human Factor Xa)?
A: 0.297 µM

Q: `N=C(N)c1cccc(O[C@@H]2C[C@@H](C(=O)N3CCc4ccccc4C3)N(C(=O)c3ccccc3)C2)c1` [compound 32] was tested. Which Ki [1] did it give?
A: > 399 µM

Q: And the Ki (trypsin)?
A: 7.84 µM

Q: And the Ki (human Factor Xa)?
A: 15.3 µM

Q: What does the source list for `CC(=O)N1C[C@H](Oc2cccc(C(=N)N)c2)C[C@H]1C(=O)Nc1ccc(C(=N)N)cc1` [compound 14]?
A: Ki [1]: > 39 µM; Ki (trypsin): 10.1 µM; Ki (plasmin): > 24.5 µM; Ki (human Thrombin): > 36.2 µM; Ki (human Factor Xa): 6.61 µM

Q: How did the Ki (human Plasma Kallikrein) turn out when `N=C(N)c1ccc(NC(=O)[C@@H]2C[C@@H](Oc3cccc(C(=N)N)c3)CN2Cc2ccccc2[N+](=O)[O-])cc1` [compound 5] was run?
A: 16 µM

Q: And the Ki [1]?
A: > 39 µM

Q: What about the Ki (trypsin) of the same molecule?
A: 2.14 µM

Q: And the Ki (plasmin)?
A: 7 µM

Q: What about the Ki (human Thrombin) of the same molecule?
A: 14.5 µM

Q: What about the Ki (human Factor Xa) of the same molecule?
A: 2.13 µM

Q: Which results are given for `C=CCOC(=O)[C@@H]1C[C@@H](Oc2cccc(C(=N)N)c2)CN1C(=O)c1ccccc1` [compound 36]?
A: Ki (human Plasma Kallikrein): > 33.8 µM; Ki (trypsin): 4.26 µM; Ki (human Thrombin): 21.7 µM; Ki (human Factor Xa): 19.9 µM and 14 µM

Q: What does the source list for `N=C(N)c1ccc(NC(=O)[C@@H]2C[C@@H](Oc3cccc(C(=N)N)c3)CN2C2CCCCC2)cc1` [compound 6]?
A: Ki (human Plasma Kallikrein): 3.4 µM; Ki [1]: > 39 µM; Ki (trypsin): 5.15 µM; Ki (plasmin): 15 µM; Ki (human Factor Xa): 2.41 µM

Q: What does the source list for `N=C(N)c1cccc(O[C@@H]2C[C@@H](C(=O)N3CCc4ccccc4C3)N(S(=O)(=O)c3ccccc3)C2)c1` [compound 21]?
A: Ki [1]: > 39 µM; Ki (trypsin): 20.2 µM; Ki (human Thrombin): 14.5 µM; Ki (human Factor Xa): 10.5 µM

Q: Which Ki [1] does the source give for `C=CCOC(=O)[C@@H]1C[C@@H](Oc2cccc(C(=N)N)c2)CN1` [compound 27] here?
A: 15.6 µM

Q: And the Ki (trypsin)?
A: 14.1 µM

Q: And the Ki (plasmin)?
A: > 24.6 µM

Q: What about the Ki (human Factor Xa) of the same molecule?
A: 14 µM

Q: What does the source list for `COC(=O)[C@@H]1C[C@@H](Oc2cccc(C(=N)N)c2)CN1` [compound 80]?
A: Ki (human Plasma Kallikrein): 55 µM; Ki [1]: > 39 µM; Ki (trypsin): 28.3 µM; Ki (plasmin): > 24.6 µM; Ki (human Thrombin): > 36.2 µM; Ki (human Factor Xa): > 35.1 µM

Q: Which Ki (trypsin) does the source give for `C=CCOC(=O)[C@@H]1C[C@@H](Oc2cccc(C(=N)N)c2)CN1Cc1ccccc1` [compound 60] here?
A: 4.99 µM

Q: What does the source list for `N=C(N)c1ccc(NC(=O)[C@@H]2C[C@@H](Oc3cccc(C(=N)N)c3)CN2Cc2ccc([N+](=O)[O-])cc2)cc1` [compound 22]?
A: Ki (human Plasma Kallikrein): 3.4 µM; Ki [1]: > 39 µM; Ki (trypsin): 7.76 µM; Ki (plasmin): 15 µM; Ki (human Thrombin): > 36 µM; Ki (human Factor Xa): 10.5 µM

Q: What does the source list for `CN(Cc1ccccc1)C(=O)[C@@H]1C[C@@H](Oc2cccc(C(=N)N)c2)CN1Cc1ccccc1` [compound 15]?
A: Ki (human Plasma Kallikrein): 34.2 µM; Ki [1]: 156 µM; Ki (trypsin): 2.26 µM; Ki (plasmin): 15.4 µM; Ki (human Thrombin): 11 µM; Ki (human Factor Xa): 6.8 µM

Q: `C=CCOC(=O)[C@@H]1C[C@@H](Oc2cccc(C(=N)N)c2)CN1C(C)=O` [compound 76] was tested. Which Ki (human Plasma Kallikrein) did it give?
A: > 33.8 µM

Q: And the Ki (trypsin)?
A: 30.3 µM

Q: What about the Ki (plasmin) of the same molecule?
A: > 24.5 µM

Q: What about the Ki (human Thrombin) of the same molecule?
A: > 36.2 µM

Q: How did the Ki (human Plasma Kallikrein) turn out when `CCCCCCN1C[C@H](Oc2cccc(C(=N)N)c2)C[C@H]1C(=O)Nc1ccc(C(=N)N)cc1` [compound 16] was run?
A: 17 µM

Q: And the Ki [1]?
A: > 39 µM

Q: And the Ki (trypsin)?
A: 6.07 µM

Q: And the Ki (plasmin)?
A: 12 µM

Q: What about the Ki (human Thrombin) of the same molecule?
A: 29 µM

Q: And the Ki (human Factor Xa)?
A: 6.81 µM

Q: With `N=C(N)c1cccc(O[C@@H]2C[C@@H](C(=O)Nc3ccc(Cl)cc3)N(C(=O)c3ccccc3)C2)c1` [compound 17] as the molecule, how does the Ki (human Plasma Kallikrein) read?
A: > 33.8 µM

Q: What about the Ki [1] of the same molecule?
A: > 39 µM

Q: And the Ki (trypsin)?
A: 3.6 µM

Q: What about the Ki (human Factor Xa) of the same molecule?
A: 7.88 µM

Q: How did the Ki (human Plasma Kallikrein) turn out when `CS(=O)(=O)N1C[C@H](Oc2cccc(C(=N)N)c2)C[C@H]1C(=O)Nc1ccc(Cl)cc1` [compound 52] was run?
A: 27 µM

Q: And the Ki [1]?
A: > 39 µM

Q: And the Ki (trypsin)?
A: 40.5 µM

Q: And the Ki (plasmin)?
A: > 24.5 µM

Q: What about the Ki (human Thrombin) of the same molecule?
A: > 36.2 µM

Q: `COc1cc2c(cc1OC)CN(C(=O)[C@@H]1C[C@@H](Oc3cccc(C(=N)N)c3)CN1)CC2` [compound 11] was tested. Which Ki (human Plasma Kallikrein) did it give?
A: 0.979 µM

Q: What about the Ki (trypsin) of the same molecule?
A: 0.607 µM

Q: What about the Ki (plasmin) of the same molecule?
A: 7.36 µM

Q: What about the Ki (human Thrombin) of the same molecule?
A: 0.875 µM

Q: What about the Ki (human Factor Xa) of the same molecule?
A: 5.84 µM
